Measured values: US20260356957A1, “METHODS FOR TREATMENT OF NON-SMALL CELL LUNG CANCER (NSCLC)” (Janssen Biotech, Inc., priority 2023, published 2026)
Marks after values point to notes of the source that are not given here.

Assay: MARIPOSA Phase 3, adverse events
Format: in vivo, human
Description: • 1. […] Incidence and Severity of Adverse Events (AEs) [Time Frame: Up to approximately 60 months]. Incidence and severity of treatment emergent adverse events (TEAEs) will be reported. Any adverse event occurring at or after the initial administration of study treatment through the day of last dose plus 30 days, or until the start of subsequent anticancer therapy (if earlier), is considered to be treatment emergent. • 8. Number of Participants with Clinical Laboratory Abnormalities [Time Frame: Up to approximately 60 months]. Number of participants with clinical laboratory abnormalities (serum chemistry, hematology, blood coagulation, and urine samples) will be reported. • 9. Number of Participants with Vital Signs Abnormalities [Time Frame: Up to approximately 60 months]. Number of participants with vital signs abnormalities (temperature, heart rate, respiratory rate, oxygen saturation, blood pressure) will be reported. • 10. Number of Participants with Physical Examination Abnormalities [Time Frame: Up to approximately 60 months]. Number of participants with physical examination abnormalities will be reported. • 11. […] The NSCLC-SAQ contains 7 items that assess cough, pain, dyspnea, fatigue, and poor appetite over a 7-day recall period. Each multi-item scale and individual item will be summarized using count and percent by visit. • 15. […] EORTC-QLQ-C30 is a core 30-item questionnaire for evaluating the health-related quality of life (HRQOL) of participants participating in cancer clinical studies. • 16.

[1] = AE of interest, grouped preferred terms
[2] = Grade 5 AE, deemed treatment-related
[3] = TEAE leading to discontinuations of any study agent
[4] = TEAE leading to dose reductions of any study agent
[5] = TEAE leading to interruptions of any study agent
[6] = adverse events, listed as osimertinib
[7] = pneumonitis and interstitial lung disease

## C=CC(=O)Nc1cc(Nc2nccc(-c3cn(C)c4ccccc34)n2)c(OC)cc1N(C)CCN(C)C [Osimertinib]
AE of interest
  Venous thromboembolism, No. of days to first onset, median (range): 194 (10-675) days
[1]
  Any venous thromboembolism event, No. of patients (%): 39 (9) no. (%)
  Rash, Duration of event, median no. of days (range): 51 (1-625) days
  Rash, No. of days to first onset, median (range): 29 (1-799) days
  Rash, No. of events, any grade: 238
  Rash, No. of patients (%): 210 (49) no. (%)
AE, All grades
  Anemia: 91 (21) no. (%)
  Asthenia: 46 (11) no. (%)
  COVID-19: 103 (24) no. (%)
  Constipation: 55 (13) no. (%)
  Cough: 88 (21) no. (%)
  Decreased appetite: 76 (18) no. (%)
  Dermatitis acneiform: 55 (13) no. (%)
  Diarrhea: 190 (44) no. (%)
  Dry skin: 60 (14) no. (%)
  Dyspnea: 68 (16) no. (%)
  Fatigue: 42 (10) no. (%)
  Hypoalbuminemia: 26 (6) no. (%)
  Hypocalcemia: 35 (8) no. (%)
  Increased alanine aminotransferase: 57 (13) no. (%)
  Increased aspartate aminotransferase: 58 (14) no. (%)
  Infusion-related reaction: 0 no. (%)
  Leukopenia: 66 (15) no. (%)
  Muscle spasms: 32 (7) no. (%)
  Nausea: 58 (14) no. (%)
  Pain in extremity: 22 (5) no. (%)
  Paronychia: 121 (28) no. (%)
  Peripheral edema: 24 (6) no. (%)
  Pruritus: 73 (17) no. (%)
  Pulmonary embolism: 20 (5) no. (%)
  Rash: 131 (31) no. (%)
  Stomatitis: 90 (21) no. (%)
  Thrombocytopenia: 84 (20) no. (%)
AE, Grade ≥3
  Anemia: 7 (2) no. (%)
  Asthenia: 4 (1) no. (%)
  COVID-19: 9 (2) no. (%)
  Constipation: 0 no. (%)
  Cough: 0 no. (%)
  Decreased appetite: 6 (1) no. (%)
  Dermatitis acneiform: 0 no. (%)
  Diarrhea: 3 (1) no. (%)
  Dry skin: 1 (0.2) no. (%)
  Dyspnea: 17 (4) no. (%)
  Fatigue: 4 (1) no. (%)
  Hypoalbuminemia: 0 no. (%)
  Hypocalcemia: 0 no. (%)
  Increased alanine aminotransferase: 8 (2) no. (%)
  Increased aspartate aminotransferase: 5 (1) no. (%)
  Infusion-related reaction: 0 no. (%)
  Leukopenia: 0 no. (%)
  Muscle spasms: 0 no. (%)
  Nausea: 1 (0.2) no. (%)
  Pain in extremity: 0 no. (%)
  Paronychia: 2 (0.5) no. (%)
  Peripheral edema: 0 no. (%)
  Pruritus: 1 (0.2) no. (%)
  Pulmonary embolism: 10 (2) no. (%)
  Rash: 3 (1) no. (%)
  Stomatitis: 1 (0.2) no. (%)
  Thrombocytopenia: 5 (1) no. (%)
Grade 5 AE
  Acinetobacter sepsis: 0 no. (%)
  Acute respiratory distress syndrome: 0 no. (%)
  Arteriosclerosis coronary artery: 0 no. (%)
  COVID-19: 3 (1) no. (%)
  COVID-19 pneumonia: 0 no. (%)
  Cardiac failure: 1 (0.2) no. (%)
  Cardiopulmonary failure: 0 no. (%)
  Cerebral hemorrhage: 1 (0.2) no. (%)
  Cerebral infarction: 0 no. (%)
  Cerebrovascular accident: 1 (0.2) no. (%)
  Circulatory collapse: 0 no. (%)
  Death: 2 (0.5) no. (%)
  Dyspnea: 3 (1) no. (%)
  Hemoptysis: 1 (0.2) no. (%)
  Ischemic cerebral infarction: 0 no. (%)
  Ketoacidosis: 1 (0.2) no. (%)
  Lower respiratory tract infection: 1 (0.2) no. (%)
  Metabolic acidosis: 1 (0.2) no. (%)
  Myocardial infarction: 0 no. (%)
  Myocardial rupture: 0 no. (%)
  Pericardial effusion: 1 (0.2) no. (%)
  Pleural effusion: 1 (0.2) no. (%)
  Pneumonia: 4 (1) no. (%)
  Pneumonia aspiration: 1 (0.2) no. (%)
  Pulmonary embolism: 2 (0.5) no. (%)
  Respiratory failure: 2 (0.5) no. (%)
  Respiratory tract infection: 1 (0.2) no. (%)
  Sepsis: 1 (0.2) no. (%)
  Septic shock: 1 (0.2) no. (%)
  Sudden death: 1 (0.2) no. (%)
  Urosepsis: 0 no. (%)
[2]
  Coronary artery disease: 0 no. (%)
  Interstitial lung disease: 2 (0.5)§ no. (%)
  Pneumonitis: 0 no. (%)
[3]
  Asthenia: 1 (0.2) no. (%)
  Dermatitis acneiform: 0 no. (%)
  Hypoalbuminemia: 0 no. (%)
  Infusion related reaction: 0 no. (%)
  Interstitial lung disease: 4 (1) no. (%)
  Paronychia: 0 no. (%)
  Peripheral edema: 0 no. (%)
  Pneumonia: 3 (1) no. (%)
  Pneumonitis: 7 (2) no. (%)
  Pulmonary embolism: 2 (0.5) no. (%)
  Rash: 0 no. (%)
[4]
  Dermatitis acneiform: 0 no. (%)
  Folliculitis: 0 no. (%)
  Hypoalbuminemia: 0 no. (%)
  Increased alanine aminotransferase: 0 no. (%)
  Increased aspartate aminotransferase: 0 no. (%)
  Mucosal inflammation: 0 no. (%)
  Neuropathy peripheral: 0 no. (%)
  Paresthesia: 0 no. (%)
  Paronychia: 1 (0.2) no. (%)
  Peripheral edema: 0 no. (%)
  Peripheral sensory neuropathy: 0 no. (%)
  Rash: 2 (0.5) no. (%)
  Rash maculo-papular: 0 no. (%)
  Rash pustular: 0 no. (%)
  Skin lesion: 0 no. (%)
  Stomatitis: 0 no. (%)
[5]
  Asthenia: 1 (0.2) no. (%)
  COVID-19: 36 (8) no. (%)
  Deep vein thrombosis: 2 (0.5) no. (%)
  Dermatitis acneiform: 1 (0.2) no. (%)
  Diarrhea: 6 (1) no. (%)
  Hypoalbuminemia: 0 no. (%)
  Increased alanine aminotransferase: 12 (3) no. (%)
  Increased aspartate aminotransferase: 11 (3) no. (%)
  Increased γ-glutamyltransferase: 5 (1) no. (%)
  Paronychia: 4 (1) no. (%)
  Peripheral edema: 0 no. (%)
  Pneumonia: 18 (4) no. (%)
  Pulmonary embolism: 9 (2) no. (%)
  Rash: 4 (1) no. (%)
  Stomatitis: 4 (1) no. (%)
VTE
  Any venous thromboembolism event leading to death: 2 (0.5) no. (%)
  Any venous thromboembolism event leading to discontinuation of any agent: 2 (0.5) no. (%)
  Any venous thromboembolism event, Grade 1: 0 no. (%)
  Any venous thromboembolism event, Grade 2: 24 (6) no. (%)
  Any venous thromboembolism event, Grade 3: 12 (3) no. (%)
  Any venous thromboembolism event, Grade 4: 1 (0.2) no. (%)
  Any venous thromboembolism event, Grade 5: 2 (0.5) no. (%)
VTE event
  Axillary vein thrombosis: 0 no. (%)
  Deep vein thrombosis: 11 (3) no. (%)
  Embolism: 3 (1) no. (%)
  Embolism venous: 1 (0.2) no. (%)
  Jugular vein thrombosis: 0 no. (%)
  Pelvic venous thrombosis: 1 (0.2) no. (%)
  Portal vein thrombosis: 0 no. (%)
  Post thrombotic syndrome: 0 no. (%)
  Pulmonary embolism: 20 (5) no. (%)
  Pulmonary infarction: 0 no. (%)
  Pulmonary thrombosis: 1 (0.2) no. (%)
  Sigmoid sinus thrombosis: 0 no. (%)
  Superficial vein thrombosis: 0 no. (%)
  Superior sagittal sinus thrombosis: 0 no. (%)
  Superior vena cava syndrome: 1 (0.2) no. (%)
  Thrombophlebitis: 4 (1) no. (%)
  Thrombosis: 1 (0.2) no. (%)
  Vena cava thrombosis: 0 no. (%)
  Venous thrombosis: 1 (0.2) no. (%)
  Venous thrombosis limb: 1 (0.2) no. (%)
Adverse events
  Any event leading to discontinuations of any study agent: 58 (14) no. (%)
  Any event leading to interruptions of any study agent: 165 (39) no. (%)
  Any event leading to reductions of any study agent: 23 (5) no. (%)
  Any event resulting in death: 31 (7) no. (%)
  Any serious event: 143 (33) no. (%)
  Grade ≥3: 183 (43) no. (%)
Adverse events, safety population
  Any event: 425 (99) no. (%)
[6]
  Any event leading to discontinuations of any study agent: 58 (14%) no. (%)
  Any event leading to interruptions of any study agent: 165 (39%) no. (%)
  Any event leading to reductions of any study agent: 23 (5%) no. (%)
  Any event resulting in death: 31 (7%) no. (%)
Any grade, both groups
  Interstitial lung disease/pneumonitis: 3%
Both groups
  Interstitial lung disease/pneumonitis, grade 3 or higher: 1%
In vivo
  Adverse events of grade 3 or higher: 43%
  Discontinuations of all agents due to treatment-related adverse events: 3%
  Receiving anticoagulation at time of first VTE: 0%
  Serious adverse events: 33%
  Venous thromboembolic (VTE) events: 9%
Of VTE events
  VTE events in the first 4 months of treatment: 33%
On anticoagulants
  First bleeding event while on anticoagulants: 14 (3) no. (%)
  Recurrent venous thromboembolism event while on anticoagulants: 0 no. (%)
On study
  Anticoagulation concomitant use: 81 (19) no. (%)
[7]
  Interstitial lung disease, Duration of event, median no. of days (range): 20 (1-189) days
  Interstitial lung disease, No. of days to first onset, median (range): 115 (9-512) days
  Interstitial lung disease, No. of patients (%): 13 (3) no. (%)
Serious TEAE
  Alanine aminotransferase increased: 6 (1) no. (%)
  COVID-19: 10 (2) no. (%)
  Cardiac failure: 5 (1) no. (%)
  Deep vein thrombosis: 2 (0.5) no. (%)
  Dyspnea: 11 (3) no. (%)
  Hypoalbuminemia: 0 no. (%)
  Hyponatremia: 4 (1) no. (%)
  Infusion related reaction: 0 no. (%)
  Interstitial lung disease: 5 (1) no. (%)
  Pericardial effusion: 5 (1) no. (%)
  Pleural effusion: 17 (4) no. (%)
  Pneumonia: 21 (5) no. (%)
  Pneumonitis: 8 (2) no. (%)
  Pulmonary embolism: 10 (2) no. (%)
  Rash: 0 no. (%)
  Respiratory failure: 2 (0.5) no. (%)
treatment-related AE
  Any event: 378 (88) no. (%)
  Any event resulting in death: 2 (0.5) no. (%)
  Any serious event: 24 (6) no. (%)
  Grade ≥3: 59 (14) no. (%)
treatment-related AE, All
  Decreased appetite: 40 (9) no. (%)
  Dermatitis acneiform: 54 (13) no. (%)
  Diarrhea: 149 (35) no. (%)
  Dry skin: 54 (13) no. (%)
  Hypoalbuminemia: 11 (3) no. (%)
  Increased alanine aminotransferase: 38 (9) no. (%)
  Increased aspartate aminotransferase: 34 (8) no. (%)
  Infusion-related reaction: 0 no. (%)
  Nausea: 32 (7) no. (%)
  Paronychia: 115 (27) no. (%)
  Peripheral edema: 10 (2) no. (%)
  Pruritus: 63 (15) no. (%)
  Rash: 121 (28) no. (%)
  Stomatitis: 77 (18) no. (%)
  Thrombocytopenia: 75 (18) no. (%)
treatment-related AE, Grade ≥3
  Decreased appetite: 1 (0.2) no. (%)
  Dermatitis acneiform: 0 no. (%)
  Diarrhea: 2 (0.5) no. (%)
  Dry skin: 1 (0.2) no. (%)
  Hypoalbuminemia: 0 no. (%)
  Increased alanine aminotransferase: 4 (1) no. (%)
  Increased aspartate aminotransferase: 1 (0.2) no. (%)
  Infusion-related reaction: 0 no. (%)
  Nausea: 1 (0.2) no. (%)
  Paronychia: 2 (0.5) no. (%)
  Peripheral edema: 0 no. (%)
  Pruritus: 1 (0.2) no. (%)
  Rash: 3 (1) no. (%)
  Stomatitis: 1 (0.2) no. (%)
  Thrombocytopenia: 3 (1) no. (%)
